Laboratory results reported in patent US11986315B2, “Apparatus and method for the non-invasive detection of tetrahydrocannabinol use and impairment” (CHILDREN'S NATIONAL MEDICAL CENTER, priority 2018, dated 2024).

System: pupillary light reflex of an individual
Experiment: pupillary light reflex after inhalation of THC (pupillometry)
Assay type: in vivo
Source text: Following acquisition 131, primary data such as, for instance, pupillary dimensions and pupillary oscillations therefrom, can be determined for each of the plurality of video frames in the video sequence of the eye of the patient 132. […]
Pupillary oscillations and/or reactions to light, as described above, can reflect the activity of the autonomic nervous system. […] The pupillary light reflex can be evaluated via the method, and apparatus thereof, of the present disclosure, wherein higher frequency activation occurs with increased sympathetic tone and lower frequency activation occurs from increased parasympathetic tone. […]
According to an embodiment, a variety of pupillometric measures can be evaluated from pupillary data following initial video sequence processing 132 such that, in combination with secondary data 134 including frequency spectra, patient response profiles can be better characterized. […] As introduced above, the baseline pupil size can be found before the flash of light and the maximally constricted size can be determined after the flash of light. […]

In the case of CCCCCc1cc(O)c2c(c1)OC(C)(C)[C@@H]1CCC(C)=C[C@@H]21 [THC, Δ^9-tetrahydrocannabinol], the “influence on pupillary light reflex” value (cannabis-tolerant individual, 30, 60, 90, 120 and 150 minutes after inhalation of THC, FIG. 4) was “inhibited to varying levels” and the “influence on pupillary light reflex” value (individual, 30, 60, 120 and 180 minutes after inhalation of 24 mg of THC, FIG. 3) was “inhibited to varying levels”.
